Laboratory results reported in patent US6365201B1, “Phytodrug for management of peptic ulcer and methods of preparing and using same” (National Institute for Pharmaceutical Research and …, priority 1997, dated 2002).

System: small intestinal transit
Experiment: Small intestinal transit in mice, charcoal meal method
Assay type: in vivo
Settings: reference, dose not given
Method: Drugs that delay the small intestinal transit time have beneficial effects on ulcer patients. The effect of the Indigofera […] extract on small intestinal transit in mice was tested using the charcoal meal method.

## NC[C@H](O)c1ccc(O)c(O)c1 [Noradrenaline]
  % distance traveled: 64.6 ± 9.0%
  % inhibition: 35.4%
